In US20260167636A1, “NOVEL COMPOUNDS FOR THE DIAGNOSIS OF TDP-43 PROTEINOPATHIES” (AC IMMUNE SA, priority 2022, published 2026):
Where two headings read alike, the source gives them in different places. Marks after values point to notes of the source that are not given here.

Columns and labels:
Type in all cases: binding
[1] = molecular target: T1, FTD patient brain-derived TDP-43 aggregates (Homo sapiens, UniProt Q13148); assay: Micro-radiobinding competition assay against [3H]-reference ligand; details: tritiated reference ligand at 25 nM; for Ki: 0.24 nM to 2 μM; for Human brain derived TDP-43 aggregates Mean % competition at 125 nM: compound at 125 nM; for Human brain derived TDP-43 aggregates Mean % competition at 1 μM: compound at 1 μM
T1 construct: A sample of brain tissue (frontal or temporal cortex) was homogenized; from tissue; host or cells: human FTD patient brain, frontal or temporal cortex, sarkosyl-insoluble fraction
T1 sequence (Q13148 whole entry): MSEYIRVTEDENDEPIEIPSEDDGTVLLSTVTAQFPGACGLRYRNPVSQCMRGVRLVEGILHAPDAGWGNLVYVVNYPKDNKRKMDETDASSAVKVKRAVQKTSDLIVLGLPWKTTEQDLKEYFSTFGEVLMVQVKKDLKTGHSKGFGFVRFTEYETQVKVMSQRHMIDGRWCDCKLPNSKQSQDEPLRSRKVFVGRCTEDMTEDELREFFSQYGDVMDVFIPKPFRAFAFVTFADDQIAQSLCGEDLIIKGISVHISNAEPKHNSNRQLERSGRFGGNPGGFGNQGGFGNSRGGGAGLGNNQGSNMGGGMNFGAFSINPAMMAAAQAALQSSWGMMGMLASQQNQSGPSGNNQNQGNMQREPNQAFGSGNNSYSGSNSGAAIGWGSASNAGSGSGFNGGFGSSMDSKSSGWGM
Experimental: (§1) Human brain extracts were prepared as described in Laferriere et al., 2019, Nature Neurosc. A sample of brain tissue (frontal or temporal cortex) was homogenized at 1:4 (w/v) ratio in the homogenization-solubilization (HS) buffer at 4° C. using tissue homogenizer (Precellys) with CKmix homogenization tubes. The following sequence was used for homogenization: 3 cycles of 30 seconds at 5000 rpm (with 15 seconds pause between each cycle). Homogenized samples were aliquoted and stored at −80° C. in 1.5 mL low protein binding tubes.
(§2) Brain homogenates were thawed on ice and resuspended in HS buffer to obtain a final concentration of 2% sarkosyl, 1 unit/μL Benzonase and 1 mM MgCl2. The samples were then incubated at 37° C. under constant shaking at 600 rpm on a thermomixer for 45 minutes (min). The supernatants were collected in a new tube (sarkosyl-soluble fraction, S1). The pellet was resuspended in 1000 μL of myelin floatation buffer and centrifuged at 20,000 g for 60 min at 4° C. The supernatant was carefully removed to remove all the floating lipids. This step was repeated if all the lipids could not be removed in a single step. The pellet was subsequently washed with Phosphate-Buffered Saline (PBS) and centrifuged for 30 min at 20,000 g at 4° C. The final pellet was resuspended in 200 μL PBS and stored at −80° C. (sarkosyl-insoluble fraction). The samples were analyzed by immunoblotting in denaturing conditions.
(§3) Human FTD sarkosyl-insoluble brain extracts were spotted onto microarray slides. Three batches of extracts were used. The slides were incubated with a tritiated reference ligand at 25 nM or with tritiated Compound 1 ([^3H]-Compound 1) at 40 nM or 50 nM depending on the batch used. The example compounds (non-radiolabeled) were used at 1 μM and 125 nM (or 1 μM and 100 nM for compound 15). In some cases, the non-radiolabeled example compounds were further assessed for a range of different concentrations, varying from 0.24 nM to 2 μM for determination of the inhibition constant (Ki). After incubation, slides were washed and scanned by a real-time autoradiography system (BeaQuant, ai4R). Quantification of the signal was performed by using the Beamage image analysis software (ai4R). Non-specific signal was determined with an excess of non-radiolabeled reference compound (2 μM) and specific binding was calculated by subtracting the non-specific signal from the total signal. Competition was calculated as percent, where 0% was defined as the specific binding in the presence of vehicle and 100% as the values obtained in the presence of excess of the non-radiolabeled reference compound. Ki values were calculated in GraphPad Prism8 by applying a nonlinear regression curve fit using a one site, specific binding model. Measurements were performed with at least two technical replicates in the two-concentration competition experiment and with one technical replicate in the experiments including a range of concentrations. For compounds tested in more than one experiment, the mean of the replicates or K; values in independent experiments is reported.
Results: Example compounds 1 to 10 were assessed for their potency to compete with the binding of [^3H]-reference ligand to FTD patient brain-derived TDP-43 aggregates. Results of the micro-radiobinding competition assay for the example compounds are shown in Table 2 below as: % competition at 1 μM and 125 nM.

[2] = molecular target: T2, Human brain derived TDP-43 aggregates (Homo sapiens, UniProt Q13148); assay: Micro-radiobinding competition assay against [3H]-Compound 1; details: for Ki: 0.24 nM to 2 μM; for Ki / Human brain derived TDP-43 aggregates Mean % competition at 1 μM: [3H]-Compound 1 at 50 nM (40 nM for compound 15); for Human brain derived TDP-43 aggregates Mean % competition at 125 nM: compound at 125 nM, [3H]-Compound 1 at 50 nM; for Human brain derived TDP-43 aggregates Mean % competition at 1 μM: compound at 1 μM
T2 construct: A sample of brain tissue (frontal or temporal cortex) was homogenized; from tissue; host or cells: human FTD patient brain, frontal or temporal cortex, sarkosyl-insoluble fraction
T2 sequence (Q13148 whole entry): as above
Experimental: as §1, §2, §3
Example compounds 11 to 15 were assessed for their potency to compete with the binding of [^3H]-Compound 1 on two different batches of brain extracts. Results of the micro-radiobinding competition assay for the example compounds are shown in Table 3 below as: % competition at 1 μM and 125 nM (with Compound 1 at 50 nM) for compounds 11 to 14, or % competition at 1 μM and 100 nM (with Compound 1 at 40 nM) for compound 15 respectively.

[3] = molecular target: T3, TDP-43 aggregates in human FTD sarkosyl-insoluble brain extracts (Homo sapiens, UniProt Q13148); assay: Kd determination with micro-radiobinding (saturation) assay on human FTD sarkosyl insoluble brain extract
T3 construct: A sample of brain tissue (frontal or temporal cortex) was homogenized; from tissue; host or cells: human FTD patient brain, frontal or temporal cortex, sarkosyl-insoluble fraction
T3 sequence (Q13148 whole entry): as above
Experimental: as §1, §2
2.1 Kd Determination on Human FTD Sarkosyl Insoluble Brain Extract with Micro-Radiobinding Assay of [^3H]-Compound 1, 4, 8, 11, 12
Human FTD sarkosyl-insoluble brain extracts were spotted onto microarray slides. The slides were incubated with [^3H]-Compound 1, [^3H]-Compound 4, [^3H]-Compound 8, [^3H]-Compound 11, or [^3H]-Compound 12 respectively, in a range of concentrations, varying from 1.93 to 300 nM. After incubation, slides were washed and scanned by a real-time autoradiography system (BeaQuant, ai4R). Quantification of the signal was performed by using the Beamage image analysis software (ai4R). Non-specific signal was determined with an excess of non-radiolabelled compound 1, 4, 8, 11 or 12 (2 μM), respectively, and specific binding was calculated by subtracting the non-specific signal from the total signal.
The Kd (Dissociation constant) and R^2 (parameter ranging between 0.0 and 1.0 that quantifies the goodness of fit, and the best curve fit obtained with value of 1.0) were obtained by fitting the specific binding data with non-linear regression analysis, using a one-site specific binding model in GraphPad Prism8.

[4] = tritiated compound 1.93 to 300 nM on human FTD sarkosyl-insoluble brain extracts, one-site specific binding fit, read-out: Kd (dissociation constant)
[5] = different batch of FTD sarkosyl-insoluble brain extracts, read-out: Kd (dissociation constant)

SMILES	Ki [1]	Human brain derived TDP-43 aggregates Mean % competition at 125 nM [1]	Human brain derived TDP-43 aggregates Mean % competition at 1 μM [1]	other results
O=C(Nc1ccc(F)nc1)c1cnc(-c2ccc(N3CC[C@@H](F)C3)nc2)s1 [Compound 1, (R)—N-(6-fluoropyridin-3-yl)-2-(6-(3-fluoropyrrolidin-1-yl)pyridin-3-yl)thiazole-5-carboxamide]	105 nM	63%	102%	–
O=C(Nc1cnc(F)cn1)c1cnc(-c2ccc(N3CC[C@@H](F)C3)nc2)s1 [Compound 5]	223 nM	53%	70%	–
O=C(Nc1cnc(F)nc1)c1cnc(-c2ccc(N3CC[C@@H](F)C3)nc2)s1 [Compound 6]	89 nM	46%	83%	–
Nc1cc(NC(=O)c2cnc(-c3ccc(N4CC[C@H](F)C4)nc3)s2)ccc1F [Compound 7]	63 nM	52%	80%	–
O=C(Nc1cncc(F)c1)c1cnc(-c2ccc(N3CC[C@@H](F)C3)nc2)s1 [Compound 11, (R)—N-(5-fluoropyridin-3-yl)-2-(6-(3-fluoropyrrolidin-1-yl)pyridin-3-yl)thiazole-5-carboxamide]	–	–	–	Ki [2]: 50 nM; Human brain derived TDP-43 aggregates Mean % competition at 125 nM [2]: 65%; Human brain derived TDP-43 aggregates Mean % competition at 1 μM [2]: 80%
O=C(Nc1cncc(F)c1)c1sc(-c2ccc(N3CC[C@@H](F)C3)nc2)nc1F [Compound 12, (R)-4-fluoro-N-(5-fluoropyridin-3-yl)-2-(6-(3-fluoropyrrolidin-1-yl)pyridin-3-yl)thiazole-5-carboxamide]	–	–	–	Ki [2]: 213 nM; Human brain derived TDP-43 aggregates Mean % competition at 125 nM [2]: 43%; Human brain derived TDP-43 aggregates Mean % competition at 1 μM [2]: 50%
O=C(Nc1ccc(F)nc1)c1sc(-c2ccc(N3CC[C@@H](F)C3)nc2)nc1F [Compound 13, (R)-4-fluoro-N-(6-fluoropyridin-3-yl)-2-(6-(3-fluoropyrrolidin-1-yl)pyridin-3-yl)thiazole-5-carboxamide]	–	–	–	Ki [2]: 107 nM; Human brain derived TDP-43 aggregates Mean % competition at 125 nM [2]: 42%; Human brain derived TDP-43 aggregates Mean % competition at 1 μM [2]: 75%
O=C(Nc1cncnc1)c1sc(-c2ccc(N3CC[C@@H](F)C3)nc2)nc1F [Compound 14]	–	–	–	Ki [2]: 153 nM; Human brain derived TDP-43 aggregates Mean % competition at 125 nM [2]: 38%; Human brain derived TDP-43 aggregates Mean % competition at 1 μM [2]: 77%
O=C(Nc1cnsc1)c1sc(-c2ccc(N3CC[C@@H](F)C3)nc2)nc1F [Compound 15]	–	–	–	Ki [2]: 10 nM; Mean % competition at 100 nM ([2]; compound at 100 nM, [3H]-Compound 1 at 40 nM): 47* %; Human brain derived TDP-43 aggregates Mean % competition at 1 μM [2]: 92%
O=C(Nc1ccc(F)nc1)c1cnc(-c2ccc(N3CC[C@@H](F)C3)nc2)s1 [[^3H]-Compound 1]	–	–	–	Kd ([3]; data from two independent experiments, human FTD sarkosyl-insoluble brain extracts, read-out: average Kd): 53 ± 10 nM; specific binding ([3]; human FTD sarkosyl insoluble brain extracts, result in words): high specific binding; Kd [3, 4]: 52 nM
O=C(Nc1cnsc1)c1cnc(-c2ccc(N3CC[C@@H](F)C3)nc2)s1 [[^3H]-Compound 4, tritiated (R)-2-(6-(3-fluoropyrrolidin-1-yl)pyridin-3-yl)-N-(isothiazol-4-yl)thiazole-5-carboxamide]	–	–	–	Kd [3, 5]: 51 nM
O=C(Nc1ccncc1)c1cnc(-c2cnc(N3CC[C@H](F)C3)nc2)s1 [[^3H]-Compound 8, tritiated (S)-2-(2-(3-fluoropyrrolidin-1-yl)pyrimidin-5-yl)-N-(pyridin-4-yl)thiazole-5-carboxamide]	–	–	–	Kd [3, 5]: 75 nM
O=C(Nc1cncc(F)c1)c1cnc(-c2ccc(N3CC[C@@H](F)C3)nc2)s1 [[^3H]-Compound 11, tritiated (R)—N-(5-fluoropyridin-3-yl)-2-(6-(3-fluoropyrrolidin-1-yl)pyridin-3-yl)thiazole-5-carboxamide]	–	–	–	Kd [3, 4]: 80 nM
O=C(Nc1cncc(F)c1)c1sc(-c2ccc(N3CC[C@@H](F)C3)nc2)nc1F [[^3H]-Compound 12]	–	–	–	Kd [3, 4]: 67 nM

Continued, in another order:

Ki [1]	Human brain derived TDP-43 aggregates Mean % competition at 125 nM [1]	Human brain derived TDP-43 aggregates Mean % competition at 1 μM [1]	SMILES	other results
116 nM	60%	94%	O=C(Nc1cnsc1)c1cnc(-c2ccc(N3CC[C@@H](F)C3)nc2)s1 [Compound 4, (R)-2-(6-(3-fluoropyrrolidin-1-yl)pyridin-3-yl)-N-(isothiazol-4-yl)thiazole-5-carboxamide]	–
75 nM	47%	78%	O=C(Nc1ccncc1)c1cnc(-c2cnc(N3CC[C@H](F)C3)nc2)s1 [Compound 8, (S)-2-(2-(3-fluoropyrrolidin-1-yl)pyrimidin-5-yl)-N-(pyridin-4-yl)thiazole-5-carboxamide]	–
82 nM	60%	83%	O=C(Nc1ccncc1)c1cnc(-c2cnc(N3CC[C@@H](F)C3)cn2)s1 [Compound 9]	–
71 nM	54%	70%	O=C(Nc1ccc(F)nc1)c1cnc(-c2ccc(N3CC[C@@H](F)C3)cc2)s1 [Compound 10]	–
